Measured values taken from patent US20200113910A1, “TRIAZINETRIONE DERIVATIVES AND THEIR USE AS MODULATORS OF NEUROTROPHIN RECEPTOR AND RECEPTOR TYROSINE KINASES” (ALZECURE PHARMA AB, priority 2016, published 2020).

What was measured:
IGF1R = target: T1, IGF1R (Homo sapiens, UniProt P08069); assay: Enzyme Fragment Complementation cell-based assay, IGF1R; settings: HEK293-cells expressing IGFR1; ligand IGF-1 10 ng/mL
T1 construct: expressed in transfected cells; host or cells: HEK293 (cryopreserved)
From the text: (§1) The assay uses Enzyme Fragment Complementation (EFC) technique, which is a proximity-based assay. Briefly, cells used in this assay over-express two fusion proteins, i.e. the receptor, which can be either one of TrkA, TrkB, TrkC, IGF1R or FGFR1, fused to a small peptide of 8-galactosidase and an adaptor protein, i.e. SHC1 (or any other Trk-adaptor protein) fused to the major part of 8-galactosidase. […] The proximity between the small activating peptide on the receptor and the major part of 8-galactosidase on the adaptor protein leads to an active 8-galactosidase enzyme. The activation of the receptor is quantified by measuring the amount of active 8-galactosidase by its conversion of a non-luminescent substrate into a luminescent product.
(§2) U2OS-cells, over-expressing TrkA or TrkB or TrkC, are plated in 96- or 384-well plates and incubated overnight. Alternatively, cryopreserved HEK293-cells expressing IGFR1 or cryopreserved U2OS-cells expressing FGFR1 were plated in 96- or 384-well plates. On the following day, test compound was pre-mixed with ligand (NGF, BDNF, NT-3, IGF-1 or basic fibroblast growth factor (bFGF(FGF-2))) and the ligand-compound mixture is then added to the cells to yield a final ligand concentration of typically 10 ng/mL (or as indicated in FIGS. 3 and 4). After 3 hours of incubation at room temperature, the incubation is stopped by the addition of a β-galactosidase substrate mixture containing detergents. The substrate mixture is incubated for 60 minutes at ambient temperature. The luminescence is thereafter read by the use of a plate reader.
(§3) The potency is expressed as EC50 (pM) and the efficacy as % stimulation over 10 ng/mL of ligand . The ligands used was: NGF (for TrkA assay), BDNF (for TrkB assay), NT-3 (for TrkC assay) bFGF (for FGFR1 assay), IGF-1 (for IGFR1 assay), respectively.

[1] = tested on: ephrin type-B receptor 2 (EphB2); settings: Suzuki et al., FEBS Open Bio 2016; cited from earlier work
C57/BI6 mice [2] = assay: Passive avoidance task, scopolamine-treated mice (Example 1); type: in vivo; settings: 20 mg/kg i.p. once per day for 4 days; scopolamine 0.3 mg/kg s.c.; FIG. 1
Experimental: (§4) Passive avoidance (PA) is an aversive learning task based on classical (Pavlovian) fear conditioning that allows for analysis of both facilitation and impairment of memory function by adjusting the unconditioned stimulus, i.e. the electrical foot shock. Commonly a cognitive-impairing agent is administered to the animals to mimic the neurochemical disturbances present in various cognitive disorders e.g. cholinergic (scopolamine) and glutamatergic (MK-801) deficits.
(§5) Prior to testing, the animals are brought to the experimental room where they were allowed to habituate for 60 min. The test is conducted using a modified shuttle box with two communicating compartments of equal size with a small sliding door built into the separating wall and a stainless steel bar floor. One of the compartments is not illuminated and thus black whereas the other compartment (the light one) is illuminated by an electric bulb, installed on the top of a plexiglass cover. The PA training is conducted in a single session. […] Latency to cross over into the dark compartment (training latency) is recorded. […] The latency to cross over into the dark compartment with all four feet is measured (retention latency) as well as time in bright compartment and a number of other relevant parameters (e.g. number of visits in the dark compartment). […]

[3] = tested on: cellular prion protein (PrP^C); settings: Suzuki et al., FEBS Open Bio 2016; cited from earlier work
TrkB = target: T2, TrkB (Homo sapiens, UniProt Q16620); assay: Enzyme Fragment Complementation cell-based assay, TrkB; settings: for TrkB efficacy, % stimulation over 10 ng/mL of ligand: U2OS-cells over-expressing TrkB, ligand BDNF 10 ng/mL
T2 construct: expressed in transfected cells; host or cells: U2OS
From the text: (§6) A high throughput cell-based screen has been used to identify positive modulators of TrkA, TrkB and TrkC. The screen involves the use of cell-based assay overexpressing TrkA, TrkB or TrkC. The purpose of the assay is to identify compounds that modulate neurotrophin signalling (Forsell et al 2012). The assay can be used in inhibitor mode using a high concentration of ligand, in modulator mode using an intermediate concentration and in agonist mode using a low concentration of ligand.
as §1, §2, §3

TrkA = target: T3, TrkA (Homo sapiens, UniProt P04629); assay: Enzyme Fragment Complementation cell-based assay, TrkA; settings: U2OS-cells over-expressing TrkA; ligand NGF 10 ng/mL
T3 construct: expressed in transfected cells; host or cells: U2OS
From the text: as §6, §1, §2, §3

TrkC = target: T4, TrkC (Homo sapiens, UniProt Q16288); assay: Enzyme Fragment Complementation cell-based assay, TrkC; settings: U2OS-cells over-expressing TrkC; ligand NT-3 10 ng/mL
T4 construct: expressed in transfected cells; host or cells: U2OS
From the text: as §6, §1, §2, §3

FGFR1 = target: T5, FGFR1 (Homo sapiens, UniProt P11362); assay: Enzyme Fragment Complementation cell-based assay, FGFR1; settings: U2OS-cells expressing FGFR1; ligand bFGF 10 ng/mL
T5 construct: expressed in transfected cells; host or cells: U2OS (cryopreserved)
From the text: as §1, §2, §3

C57/BI6 mice [4] = assay: Passive avoidance task, MK-801-treated mice (Example 2); type: in vivo; settings: different doses i.p. once per day for 4 days; MK-801 0.3 mg/kg s.c.; FIG. 2
Experimental: as §4, §5

[5] = FIG. 3, cells stimulated with or without BDNF

T5 sequence (P11362 22-822): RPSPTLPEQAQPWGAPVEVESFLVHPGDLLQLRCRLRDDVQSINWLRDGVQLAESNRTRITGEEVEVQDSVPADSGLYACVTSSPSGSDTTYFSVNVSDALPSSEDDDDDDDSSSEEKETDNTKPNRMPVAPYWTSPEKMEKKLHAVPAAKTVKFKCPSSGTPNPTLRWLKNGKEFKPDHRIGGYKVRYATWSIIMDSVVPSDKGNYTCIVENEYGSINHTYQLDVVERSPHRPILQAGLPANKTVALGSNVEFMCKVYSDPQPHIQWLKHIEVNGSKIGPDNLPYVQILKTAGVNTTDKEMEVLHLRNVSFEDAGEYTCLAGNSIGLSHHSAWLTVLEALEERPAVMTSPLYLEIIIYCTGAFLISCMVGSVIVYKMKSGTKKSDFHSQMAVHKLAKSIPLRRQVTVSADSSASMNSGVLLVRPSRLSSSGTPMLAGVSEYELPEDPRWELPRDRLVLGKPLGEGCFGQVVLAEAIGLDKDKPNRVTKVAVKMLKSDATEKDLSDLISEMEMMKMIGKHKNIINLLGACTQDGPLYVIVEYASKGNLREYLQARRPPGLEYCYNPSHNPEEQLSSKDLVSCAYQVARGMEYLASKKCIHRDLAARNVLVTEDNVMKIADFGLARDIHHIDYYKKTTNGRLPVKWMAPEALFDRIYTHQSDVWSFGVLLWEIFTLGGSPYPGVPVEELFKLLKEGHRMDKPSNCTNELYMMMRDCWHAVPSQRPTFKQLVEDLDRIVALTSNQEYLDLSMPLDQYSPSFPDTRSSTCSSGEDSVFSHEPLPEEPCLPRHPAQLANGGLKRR
T3 sequence (P04629 33-796): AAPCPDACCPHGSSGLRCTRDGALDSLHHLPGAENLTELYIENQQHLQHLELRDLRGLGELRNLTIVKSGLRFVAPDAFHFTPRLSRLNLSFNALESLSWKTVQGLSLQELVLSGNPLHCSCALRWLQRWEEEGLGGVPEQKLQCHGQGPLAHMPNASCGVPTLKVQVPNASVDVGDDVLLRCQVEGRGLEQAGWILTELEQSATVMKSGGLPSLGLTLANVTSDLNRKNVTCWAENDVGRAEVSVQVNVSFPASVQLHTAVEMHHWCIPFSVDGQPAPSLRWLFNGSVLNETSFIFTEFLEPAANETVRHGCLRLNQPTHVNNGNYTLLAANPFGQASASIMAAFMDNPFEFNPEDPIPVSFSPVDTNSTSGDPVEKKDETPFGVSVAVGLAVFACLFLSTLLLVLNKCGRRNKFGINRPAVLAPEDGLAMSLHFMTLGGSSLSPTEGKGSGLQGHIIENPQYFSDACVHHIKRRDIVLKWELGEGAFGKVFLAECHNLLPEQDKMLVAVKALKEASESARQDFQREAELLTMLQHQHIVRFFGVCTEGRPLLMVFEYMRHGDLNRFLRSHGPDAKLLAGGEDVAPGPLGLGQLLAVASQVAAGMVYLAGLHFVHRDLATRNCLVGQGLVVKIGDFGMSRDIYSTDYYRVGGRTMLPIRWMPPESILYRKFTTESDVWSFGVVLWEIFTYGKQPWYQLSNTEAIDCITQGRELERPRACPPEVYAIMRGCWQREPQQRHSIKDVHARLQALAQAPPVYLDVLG
T2 sequence (Q16620 32-822): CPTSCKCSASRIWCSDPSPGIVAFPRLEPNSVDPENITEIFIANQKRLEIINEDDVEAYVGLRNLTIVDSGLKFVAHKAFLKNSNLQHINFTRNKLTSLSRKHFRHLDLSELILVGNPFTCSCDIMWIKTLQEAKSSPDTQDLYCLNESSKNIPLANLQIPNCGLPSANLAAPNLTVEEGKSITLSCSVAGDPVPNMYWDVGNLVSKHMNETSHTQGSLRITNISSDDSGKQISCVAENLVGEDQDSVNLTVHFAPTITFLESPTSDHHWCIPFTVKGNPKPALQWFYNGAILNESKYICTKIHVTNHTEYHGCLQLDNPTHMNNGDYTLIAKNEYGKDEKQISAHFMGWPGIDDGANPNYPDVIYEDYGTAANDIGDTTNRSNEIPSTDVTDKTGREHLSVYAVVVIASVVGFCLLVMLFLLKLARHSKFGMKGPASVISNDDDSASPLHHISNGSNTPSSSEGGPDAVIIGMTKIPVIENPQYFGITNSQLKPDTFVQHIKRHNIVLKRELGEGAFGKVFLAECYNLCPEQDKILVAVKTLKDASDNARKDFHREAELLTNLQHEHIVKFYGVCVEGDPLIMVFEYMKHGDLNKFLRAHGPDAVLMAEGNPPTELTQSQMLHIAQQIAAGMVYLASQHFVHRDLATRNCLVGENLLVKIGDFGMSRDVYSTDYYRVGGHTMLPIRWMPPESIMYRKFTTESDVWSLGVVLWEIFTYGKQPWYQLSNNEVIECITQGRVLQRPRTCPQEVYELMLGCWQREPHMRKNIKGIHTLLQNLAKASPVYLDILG
T4 sequence (Q16288 32-839): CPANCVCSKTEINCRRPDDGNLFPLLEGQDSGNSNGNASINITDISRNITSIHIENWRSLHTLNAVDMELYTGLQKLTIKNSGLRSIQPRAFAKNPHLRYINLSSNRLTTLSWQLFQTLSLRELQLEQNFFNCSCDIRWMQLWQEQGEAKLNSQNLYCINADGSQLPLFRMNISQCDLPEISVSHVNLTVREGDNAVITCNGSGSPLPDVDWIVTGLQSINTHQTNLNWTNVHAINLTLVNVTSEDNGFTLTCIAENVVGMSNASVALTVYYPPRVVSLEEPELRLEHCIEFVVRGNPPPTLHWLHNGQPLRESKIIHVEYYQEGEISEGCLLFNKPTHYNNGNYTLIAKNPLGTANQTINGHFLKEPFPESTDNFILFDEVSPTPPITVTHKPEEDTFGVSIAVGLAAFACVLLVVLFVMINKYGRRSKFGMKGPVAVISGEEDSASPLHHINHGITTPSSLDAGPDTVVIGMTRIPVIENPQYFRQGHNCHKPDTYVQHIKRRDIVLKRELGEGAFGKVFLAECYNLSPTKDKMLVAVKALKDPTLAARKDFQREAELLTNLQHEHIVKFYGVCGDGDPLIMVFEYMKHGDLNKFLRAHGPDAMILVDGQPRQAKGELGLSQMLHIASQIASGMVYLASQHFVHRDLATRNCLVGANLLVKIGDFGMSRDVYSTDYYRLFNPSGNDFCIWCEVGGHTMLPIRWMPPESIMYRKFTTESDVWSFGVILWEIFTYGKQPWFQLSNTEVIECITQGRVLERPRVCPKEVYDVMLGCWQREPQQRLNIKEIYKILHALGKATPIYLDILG
T1 sequence (P08069 31-736 limits assumed): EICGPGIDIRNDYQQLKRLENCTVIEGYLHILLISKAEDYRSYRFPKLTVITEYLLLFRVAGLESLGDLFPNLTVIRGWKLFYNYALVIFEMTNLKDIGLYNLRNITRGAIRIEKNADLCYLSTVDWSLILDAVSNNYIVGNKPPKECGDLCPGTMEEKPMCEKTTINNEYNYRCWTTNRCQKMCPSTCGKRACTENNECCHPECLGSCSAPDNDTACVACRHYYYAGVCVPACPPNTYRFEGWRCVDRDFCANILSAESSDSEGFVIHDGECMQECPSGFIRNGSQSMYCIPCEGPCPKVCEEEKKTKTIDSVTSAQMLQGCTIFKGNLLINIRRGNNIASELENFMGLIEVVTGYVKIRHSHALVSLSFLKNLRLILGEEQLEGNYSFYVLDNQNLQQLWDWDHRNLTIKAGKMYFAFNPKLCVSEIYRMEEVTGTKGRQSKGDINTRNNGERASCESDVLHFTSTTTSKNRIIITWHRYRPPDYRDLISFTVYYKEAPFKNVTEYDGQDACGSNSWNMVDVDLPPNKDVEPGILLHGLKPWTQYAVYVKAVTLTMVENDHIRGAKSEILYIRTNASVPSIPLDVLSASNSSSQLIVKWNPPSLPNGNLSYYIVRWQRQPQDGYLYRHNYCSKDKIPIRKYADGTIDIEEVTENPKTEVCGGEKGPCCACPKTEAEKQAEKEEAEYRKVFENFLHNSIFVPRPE
T1 sequence (P08069 741-1367 limits assumed): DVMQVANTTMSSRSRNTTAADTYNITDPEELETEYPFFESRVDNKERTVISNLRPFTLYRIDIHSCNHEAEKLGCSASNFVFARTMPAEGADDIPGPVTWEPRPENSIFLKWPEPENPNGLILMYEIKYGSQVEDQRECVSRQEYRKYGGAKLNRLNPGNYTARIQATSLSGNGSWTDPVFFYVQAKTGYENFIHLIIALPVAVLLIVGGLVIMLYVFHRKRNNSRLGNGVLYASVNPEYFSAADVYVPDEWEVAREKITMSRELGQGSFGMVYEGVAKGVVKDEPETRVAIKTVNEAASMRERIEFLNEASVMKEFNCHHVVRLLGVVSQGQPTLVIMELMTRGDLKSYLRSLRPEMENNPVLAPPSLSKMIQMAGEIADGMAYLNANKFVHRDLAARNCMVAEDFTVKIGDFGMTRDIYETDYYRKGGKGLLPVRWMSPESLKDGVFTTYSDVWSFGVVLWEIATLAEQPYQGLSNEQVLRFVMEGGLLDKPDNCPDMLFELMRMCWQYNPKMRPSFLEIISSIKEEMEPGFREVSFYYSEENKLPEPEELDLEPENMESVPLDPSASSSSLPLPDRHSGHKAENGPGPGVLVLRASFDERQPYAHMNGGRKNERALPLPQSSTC

Row | Structure (SMILES) | IGF1R efficacy, % stimulation over 10 ng/mL of ligand (IGF1R) [%] | inhibition of binding of β-amyloid oligomers to EphB2 [1] [%] | retention latency in passive avoidance task (cognitive function) (C57/BI6 mice [2]) | inhibitory activity at the cellular prion protein (PrP^C) [3] | decrease of activity at the two highest concentrations tested, TrkB expressing cells (TrkB; [5]) | dose-response curve with BDNF as ligand in TrkB expressing cells (TrkB; [5]) | TrkB efficacy, % stimulation over 10 ng/mL of ligand (TrkB) [%] | TrkA efficacy, % stimulation over 10 ng/mL of ligand (TrkA) [%] | TrkC efficacy, % stimulation over 10 ng/mL of ligand (TrkC) [%] | FGFR1 efficacy, % stimulation over 10 ng/mL of ligand (FGFR1) [%] | total time spent in bright compartment in passive avoidance task (cognitive function) (C57/BI6 mice [4])
1 | Cc1cc(-n2c(=O)[nH]c(=O)n(C)c2=O)ccc1Oc1ccc(SC(F)(F)F)cc1 [Compound 1, 1-methyl-3-(3-methyl-4-{4-[(trifluoromethyl)sulfanyl]phenoxy}phenyl)-1,3,5-triazinane-2,4,6-trione] | 83 | 30 | increased retention latency | lack of similar inhibitory activity | significantly decreases | no clear dose-response curve | 124 | 109 | 87 | 73 | –
2 | Cc1cc(-n2c(=O)[nH]c(=O)n(C)c2=O)ccc1Oc1ccc(S(=O)(=O)C(F)(F)F)cc1 [Compound 2, 1-methyl-3-[3-methyl-4-(4-trifluoromethanesulfonylphenoxy)phenyl]-1,3,5-triazinane-2,4,6-trione] | 25 | – | – | – | not observed | – | 232 | 138 | 70 | 43 | increased time spent in the bright area
3 | Cc1cc(-n2c(=O)[nH]c(=O)n(C)c2=O)ccc1Oc1ccc([S+]([O-])C(F)(F)F)cc1 (centres unmarked) [Compound 3, 1-methyl-3-[3-methyl-4-(4-trifluoromethanesulfinylphenoxy)phenyl]-1,3,5-triazinane-2,4,6-trione] | 109 | – | – | – | not observed | – | 196 | 143 | 74 | 102 | –
4 | Cc1cc(-n2c(=O)[nH]c(=O)n(-c3ccccc3)c2=O)ccc1Oc1ccc([S+]([O-])C(F)(F)F)cc1 (centres unmarked) [Compound 4, 1-[3-methyl-4-(4-trifluoromethanesulfinylphenoxy)phenyl]-3-phenyl-1,3,5-triazinane-2,4,6-trione] | – | – | – | – | – | – | 217 | 128 | 69 | – | –
5 | Cc1cc(-n2c(=O)[nH]c(=O)n(-c3ccccc3)c2=O)ccc1Oc1ccc(SC(F)(F)F)cc1 [Compound 5, 1-(3-methyl-4-{4-[(trifluoromethyl)sulfanyl]phenoxy}phenyl)-3-phenyl-1,3,5-triazinane-2,4,6-trione] | – | – | – | – | – | – | 210 | 112 | 84 | – | –
6 | Cc1cc(-n2c(=O)[nH]c(=O)n(-c3ccccc3)c2=O)ccc1Oc1ccc(S(=O)(=O)C(F)(F)F)cc1 [Compound 6, 1-[-3-methyl-4-(4-trifluoromethanesulfonylphenoxy)phenyl]-3-phenyl-1,3,5-triazinane-2,4,6-trione] | – | – | – | – | – | – | 300 | 147 | 124 | – | –
